Experiments:
Experiment in all cases: relative viability (nuclei count vs DMSO), 5 days (fraction); higher = more cells survive
GSK126 + Luminespib = compound: CC[C@H](C)N1C=C(C2=C(C=C(C=C21)C3=CN=C(C=C3)N4CCNCC4)C(=O)NCC5=C(C=C(NC5=O)C)C)C [GSK126] + CCNC(=O)c1noc(-c2cc(C(C)C)c(O)cc2O)c1-c1ccc(CN2CCOCC2)cc1 [Luminespib] (partner 0.01 µM)
Outline: (§1)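 Lung cancer cell lines in 1536-well plates got either a single drug or a fixed anchor-drug dose together with five library-drug doses (not always all listed) in √10 steps, by pin tool, on the day after seeding. Nuclei were counted after 5 days, and relative viability is the treated-to-vehicle ratio of nuclei counts. Values are medians of duplicate plates.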

MLN4924 + Luminespib = compound: NS(=O)(=O)OC[C@@H]1C[C@@H](n2ccc3c(N[C@H]4CCc5ccccc54)ncnc32)C[C@@H]1O [MLN4924] + CCNC(=O)c1noc(-c2cc(C(C)C)c(O)cc2O)c1-c1ccc(CN2CCOCC2)cc1 [Luminespib] (partner 0.01 µM)
Outline: as §1

MLN4924 + Crizotinib = compound: NS(=O)(=O)OC[C@@H]1C[C@@H](n2ccc3c(N[C@H]4CCc5ccccc54)ncnc32)C[C@@H]1O [MLN4924] + C[C@@H](Oc1cc(-c2cnn(C3CCNCC3)c2)cnc1N)c1c(Cl)ccc(F)c1Cl [Crizotinib] (partner 1 µM)
Outline: as §1

MLN4924 + Phenformin = compound: NS(=O)(=O)OC[C@@H]1C[C@@H](n2ccc3c(N[C@H]4CCc5ccccc54)ncnc32)C[C@@H]1O [MLN4924] + N=C(N)NC(=N)NCCc1ccccc1 [Phenformin] (partner 250 µM)
Outline: as §1

Cell Line | relative viability (GSK126 + Luminespib; first compound 0.08 µM) | relative viability (GSK126 + Luminespib; first compound 0.253 µM) | relative viability (GSK126 + Luminespib; first compound 0.8 µM) | relative viability (GSK126 + Luminespib; first compound 2.53 µM) | relative viability (GSK126 + Luminespib; first compound 8 µM) | relative viability (MLN4924 + Luminespib; first compound 0.04 µM) | relative viability (MLN4924 + Luminespib; first compound 0.1265 µM) | relative viability (MLN4924 + Luminespib; first compound 0.4 µM) | relative viability (MLN4924 + Luminespib; first compound 1.265 µM) | relative viability (MLN4924 + Luminespib; first compound 4 µM) | relative viability (MLN4924 + Crizotinib; first compound 0.04 µM) | relative viability (MLN4924 + Crizotinib; first compound 0.1265 µM) | relative viability (MLN4924 + Crizotinib; first compound 0.4 µM) | relative viability (MLN4924 + Crizotinib; first compound 1.265 µM) | relative viability (MLN4924 + Crizotinib; first compound 4 µM) | relative viability (MLN4924 + Phenformin; first compound 0.04 µM) | relative viability (MLN4924 + Phenformin; first compound 0.1265 µM) | relative viability (MLN4924 + Phenformin; first compound 0.4 µM) | relative viability (MLN4924 + Phenformin; first compound 1.265 µM) | relative viability (MLN4924 + Phenformin; first compound 4 µM)
RERF-LC-KJ | 1.22 | 1.09 | 1.31 | 1.3 | 1.16 | 1.01 | 0.629 | 0.328 | 0.265 | 0.272 | 0.786 | 0.471 | 0.225 | 0.221 | 0.207 | 0.397 | 0.351 | 0.204 | 0.255 | 0.249
NCI-H2087 | 0.144 | 0.134 | 0.142 | 0.165 | 0.185 | 0.143 | 0.148 | 0.139 | 0.129 | 0.0909 | 0.696 | 0.802 | 0.411 | 0.224 | 0.139 | 0.442 | 0.349 | 0.298 | 0.0782 | 0.0942
HCC-827 | 0.612 | 0.685 | 0.676 | 0.629 | 0.783 | 0.68 | 0.588 | 0.548 | 0.159 | 0.163 | 0.836 | 0.658 | 0.61 | 0.247 | 0.178 | 0.453 | 0.462 | 0.316 | 0.144 | 0.136
NCI-H23 | 0.224 | 0.17 | 0.257 | 0.226 | 0.208 | 0.231 | 0.175 | 0.228 | 0.208 | 0.214 | 0.579 | 0.481 | 0.301 | 0.122 | 0.139 | 0.764 | 0.8 | 0.406 | 0.341 | 0.233
HARA | 0.787 | 0.679 | 0.688 | 0.895 | 0.813 | 0.683 | 0.618 | 0.291 | 0.0565 | 0.0527 | 0.752 | 0.401 | 0.349 | 0.0875 | 0.0794 | 0.35 | 0.355 | 0.177 | 0.0555 | 0.0476
NCI-H838 | 0.39 | 0.319 | 0.357 | 0.302 | 0.34 | 0.23 | 0.279 | 0.173 | 0.12 | 0.125 | 0.635 | 0.535 | 0.235 | 0.154 | 0.139 | 0.538 | 0.319 | 0.263 | 0.127 | 0.128
NCI-H2023 | 0.728 | 0.759 | 0.698 | 0.656 | 0.66 | 0.651 | 0.539 | 0.179 | 0.0673 | 0.0714 | 0.579 | 0.918 | 0.298 | 0.0965 | 0.0683 | 0.392 | 0.393 | 0.175 | 0.0707 | 0.0769
ChaGo-K-1 | 0.602 | 0.675 | 0.556 | 0.769 | 0.397 | 0.469 | 0.399 | 0.258 | 0.256 | 0.177 | 0.908 | 0.595 | 0.451 | 0.325 | 0.324 | 0.315 | 0.298 | 0.24 | 0.199 | 0.176
EPLC-272H | 0.485 | 0.198 | 0.595 | 0.522 | 0.237 | 0.328 | 0.152 | 0.219 | 0.164 | 0.143 | 0.812 | 0.603 | 0.0795 | 0.136 | 0.201 | 0.343 | 0.325 | 0.0478 | 0.103 | 0.126
LCLC-97TM1 | 0.758 | 0.796 | 0.867 | 0.82 | 0.81 | 0.586 | 0.343 | 0.439 | 0.128 | 0.109 | 0.27 | 0.202 | 0.151 | 0.123 | 0.0984 | 0.417 | 0.314 | 0.288 | 0.108 | 0.137
LK-2 | 0.217 | 0.171 | 0.171 | 0.204 | 0.188 | 0.234 | 0.173 | 0.192 | 0.212 | 0.182 | 0.222 | 0.319 | 0.321 | 0.27 | 0.236 | 0.312 | 0.31 | 0.262 | 0.167 | 0.173
CAL-12T | 0.605 | 0.552 | 0.45 | 0.496 | 0.636 | 0.488 | 0.56 | 0.262 | 0.192 | 0.307 | 0.638 | 0.665 | 0.284 | 0.248 | 0.134 | 0.511 | 0.511 | 0.292 | 0.214 | 0.129
NCI-H322M | 0.822 | 0.845 | 0.85 | 0.978 | 0.834 | 1.25 | 1.11 | 0.989 | 0.488 | 0.311 | 0.85 | 0.779 | 0.834 | 0.262 | 0.399 | 0.908 | 0.65 | 0.473 | 0.248 | 0.306
NCI-H2126 | 1 | 0.924 | 0.873 | 0.972 | 0.734 | 0.898 | 0.843 | 0.609 | 0.472 | 0.309 | 0.912 | 0.911 | 0.789 | 0.397 | 0.256 | 0.566 | 0.566 | 0.432 | 0.321 | 0.304
NCI-H596 | 1.11 | 0.319 | 0.277 | 0.263 | 0.219 | 0.942 | 0.933 |  | 0.768 | 0.767 | 0.886 | 1.1 | 0.501 | 0.961 | 0.758 | 0.751 | 0.914 |  | 0.835 | 0.763
LU99A | 0.246 | 0.328 | 0.208 | 0.253 | 0.199 | 0.248 | 0.177 | 0.203 | 0.194 | 0.206 | 0.555 | 0.359 | 0.351 | 0.16 | 0.151 | 0.477 | 0.622 | 0.437 | 0.196 | 0.213
NCI-H1666 | 1.04 | 0.926 | 0.858 | 0.855 | 0.907 | 1 | 1.05 | 0.498 | 0.324 | 0.342 | 1.18 | 0.669 | 0.306 | 0.25 | 0.236 | 0.509 | 0.453 | 0.449 | 0.265 | 0.337
NCI-H520 | 0.22 | 0.221 | 0.236 | 0.231 | 0.237 | 0.25 | 0.2 | 0.227 | 0.213 | 0.205 | 0.431 | 0.491 | 0.338 | 0.168 | 0.151 | 0.566 | 0.439 | 0.429 | 0.265 | 0.238

From the supplement of paper PMC10307832
